Source: patent US11505580B2, “Leech polypeptide and use thereof” (priority 2019, dated 2022)
Where no end group is shown, it is not given here.

Tests used:
Type in all cases: cell-based
[1] = test system: macrophages RAW264.7; test: Transwell migration assay, LPS-induced macrophage RAW264.7 migration; details: 800 μg/mL, 1 μg/mL LPS
Source text: In this example, a leech zymolyte HE was firstly prepared from […] by enzymolysis. […] Then, HE was separated and purified by chromatography on QSepharose FF strong basic anion exchange column, and chromatography on Superdex30, Superdexpeptide and G10 gel column, and Transwell assay was done to track the activity. Finally leech polypeptide HE4-1 having activity to inhibit the migration of macrophages RAW264.7 was obtained. Transwell migration assay was used to detect the activity of HE1-HE6 in inhibiting the macrophage migration. […] Transwell assay was used to detect the inhibition of HE-D on the migration activity of macrophages RAW264.7. The experiments were divided into five groups, including a blank control group, an LPS model group and 200, 400, 800 μg/mL HE-D groups.

[2] = test system: IL-6; test: ELISA of IL-6 secretion by macrophages RAW264.7; details: 0-800 μg/mL
Source text: (§1) The effect of HE-D on the secretion of IL-1, IL-6, IL-12, and TNF-α by macrophages RAW264.7 was detected by ELISA.

[3] = test system: IL-1; test: ELISA of IL-1 secretion by macrophages RAW264.7; details: 0-800 μg/mL
Source text: as §1

[4] = test system: p38; test: Western-blot of p38 signaling pathway in LPS-induced RAW264.7 cells; details: RAW264.7 induced with LPS
Procedure: (§2) The mechanism of HE-D inhibiting macrophages RAW264.7 was tested by Western-blot.

[5] = test system: JNK; test: Western-blot of JNK signaling pathway in LPS-induced RAW264.7 cells; details: RAW264.7 induced with LPS
Procedure: as §2

[6] = test system: macrophage RAW264.7; test: Lysozyme activity assay; details: 0-800 μg/mL
Procedure: (§3) The effects of HE-D on the phagocytosis ability and lysozyme activity of macrophage RAW264.7 were measured by neutral red phagocytosis test and lysozyme activity assay.

[7] = test system: macrophage RAW264.7; test: Neutral red phagocytosis test; details: 0-800 μg/mL
Procedure: as §3

[8] = test system: TNF-α; test: ELISA of TNF-α secretion by macrophages RAW264.7; details: 400 and 800 μg/mL
Source text: as §1

[9] = test system: IL-12; test: ELISA of IL-12 secretion by macrophages RAW264.7; details: 0-800 μg/mL
Source text: as §1

Sequence	inhibition rate of LPS-induced migration of macrophages RAW264.7 [1] [%]	secretion of IL-6 [2]	secretion of IL-1 [3]	LPS-induced increase in expression level of phosphorylated p38 protein ([4]; 800 μg/mL)	expression of total p38 protein [4]	LPS-induced increase in expression level of phosphorylated JNK protein ([5]; 800 μg/mL)	expression of JNK protein [5]	lysozyme activity of macrophages RAW264.7 [6]	phagocytosis ability of macrophages RAW264.7 [7]	promotion effect on secretion of TNF-α [8] [%]	secretion of TNF-α [8]	secretion of IL-12 [9]
EAGSAKELEGDPVAG [HE4-1, leech polypeptide isolated and purified from HE4 by Superdex30, Superdexpeptide and G10 gel chromatography]	15.2											
EAGSAKELEGDPVAG [HE-D]	14.9	no significant effect	no significant effect	significantly inhibit the increase	no significant effect	significantly inhibit the increase	no significant effect	no obvious effect	no obvious effect	11.4	promote the secretion	no significant effect
